Measurements as given in US12466820B2, “Amino quinazoline derivatives as P2X3 inhibitors” (CHIESI FARMACEUTICI S.p.A., priority 2019, dated 2025).

Legend:
h P2X2/3 = target: T1, h P2X2/3 (Homo sapiens, UniProt P56373+Q9UBL9); test: In vitro electrophysiology assay for P2X2/3 (same protocol, 10 μM ATP as agonist); assay type: cell-based; details: Table 7, range of activity
T1 sequence (P56373 1-397): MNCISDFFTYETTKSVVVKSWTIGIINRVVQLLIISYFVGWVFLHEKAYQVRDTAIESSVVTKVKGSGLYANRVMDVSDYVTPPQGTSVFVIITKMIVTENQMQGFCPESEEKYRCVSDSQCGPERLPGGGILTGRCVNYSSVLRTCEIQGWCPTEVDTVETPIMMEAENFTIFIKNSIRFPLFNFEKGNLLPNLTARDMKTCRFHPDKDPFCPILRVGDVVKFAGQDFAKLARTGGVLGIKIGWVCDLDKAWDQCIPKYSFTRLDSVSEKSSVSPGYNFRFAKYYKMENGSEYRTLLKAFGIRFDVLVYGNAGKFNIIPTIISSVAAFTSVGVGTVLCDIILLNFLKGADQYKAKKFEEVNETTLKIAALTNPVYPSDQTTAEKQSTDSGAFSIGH
T1 sequence (Q9UBL9 1-471): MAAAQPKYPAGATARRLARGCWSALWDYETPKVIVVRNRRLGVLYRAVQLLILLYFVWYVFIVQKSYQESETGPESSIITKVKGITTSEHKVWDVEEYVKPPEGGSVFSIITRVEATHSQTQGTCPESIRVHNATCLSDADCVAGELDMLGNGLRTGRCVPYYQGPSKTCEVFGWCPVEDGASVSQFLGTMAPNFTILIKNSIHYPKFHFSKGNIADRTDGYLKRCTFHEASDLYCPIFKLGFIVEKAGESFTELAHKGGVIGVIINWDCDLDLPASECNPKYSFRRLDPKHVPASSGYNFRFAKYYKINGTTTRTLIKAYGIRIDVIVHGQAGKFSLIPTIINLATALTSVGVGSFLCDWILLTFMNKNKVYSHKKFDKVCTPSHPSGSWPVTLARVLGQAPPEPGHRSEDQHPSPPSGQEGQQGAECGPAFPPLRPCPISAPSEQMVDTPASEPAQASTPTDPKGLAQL
Experimental: Cells expressing P2X3 receptors were grown according to standard practice and maintained at 37° C. in a 5% humidified CO2 atmosphere. The cells were seeded into T175 flask 2 days prior to the day of the assay and dissociated from the flasks using TrypLE when grown to confluence of 80-90%. The dissociated cells were resuspended in serum free media at a cell density of 3×10^6 cells/ml and loaded onto the Sophion Qube automated patch-clamp system. The extracellular assay buffer contained 145 mM NaCl, 4 mM KCl, 2 mM CaCl2), 1 mM MgCl2, 10 mM HEPES, and 10 mM glucose at pH 7.4. The intracellular assay solution contained 140 mM CsF, 10 mM NaCl, 10 mM EGTA, 10 mM HEPES at pH 7.2. Agonist stock solutions were prepared in H2O and diluted in bath solution prior to use. All antagonists were prepared as 10 mM stock solutions in DMSO and diluted in bath solution prior to use. All experiments were performed under the whole-cell patch clamp configuration at room temperature with 384 individual cells being voltage clamped at −60 mV simultaneously on the Sophion Qube instrument. Two baseline responses were established with the application of α,β-MeATP (800 nM), with the subsequent agonist applications being washed out using extracellular assay buffer containing 0.5 U/ml apyrase. Following the second agonist application, antagonist was incubated in the absence of α,β-MeATP for 10 minutes. After antagonist preincubation, 800 nM α,β-MeATP and antagonist were co-administered to determine the inhibitory effect of the antagonist. One concentration of an antagonist was assessed against a single cell, with different concentrations of the antagonist applied to other cells on the 384 recording substrate. The control P2X3 current amplitude was taken from the peak current amplitude from the second agonist response prior to preincubation with antagonist. The peak P2X3 current amplitude in the presence of antagonist was used to calculate the inhibitory effect at each concentration of the antagonist according to the following equation: […]
Concentration-response curves were constructed from ten different concentrations with each concentration of antagonist tested on at least two individual cells. The concentration of the antagonist to inhibit P2X3 current by 50% (IC50) was determined by fitting the data with the following equation: […]
Where ‘a’ is minimum response, ‘b’ is maximum response, ‘c’ is IC50 and ‘d’ is Hill slope.
Representative compound of the present invention have been also tested for P2X2/3 receptor.
The same assay protocol was used for the P2X2/3 assay as the P2X3 assay with two modifications: 1) 10 μM ATP was used as the agonist; and 2) the mean current amplitude was measured seven seconds after the application of agonist.

h P2X3 = target: T2, h P2X3 (Homo sapiens, UniProt P56373); test: In vitro electrophysiology assay for P2X3 (automated whole-cell patch clamp, Sophion Qube); assay type: cell-based; details: range of activity
T2 sequence (P56373 1-397): T1 sequence (P56373 1-397)
Outline: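 Whole-cell automated patch clamp at room temperature, cells held at −60 mV; after two 800 nM α,β-MeATP baseline responses, antagonist preincubated 10 min then co-applied with 800 nM α,β-MeATP. Inhibition of peak current vs second agonist response; IC50 from 10-concentration curves, one concentration per cell.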

[1] = Table 6, inhibition of P2X3 current, agonist α,β-MeATP (800 nM)

SMILES | IC50 (h P2X2/3) | IC50 (h P2X3; [1]) | IC50 (h P2X3; Table 7)
COc1cc(-n2cc(C)cn2)cc2c(N[C@H](C)c3ccc(C)nn3)ncnc12 [Example 99, (R)-8-methoxy-6-(4-methyl-1H-pyrazol-1-yl)-N-(1-(6-methylpyridazin-3-yl)ethyl)quinazolin-4-amine] | 316 to 3160 nM | < 316 nM | < 316 nM
COc1cc(-c2ncc(C)s2)cc2c(NC(C)c3noc(C)n3)ncnc12 (stereo not drawn) [Example 107, 8-methoxy-N-(1-(5-methyl-1,2,4-oxadiazol-3-yl)ethyl)-6-(5-methylthiazol-2-yl)quinazolin-4-amine] | 316 to 3160 nM | < 316 nM | < 316 nM
COc1cc(-c2ncc(F)cn2)cc2c(NC(C)c3noc(C)n3)ncnc12 (stereo not drawn) [Example 108, 6-(5-fluoropyrimidin-2-yl)-8-methoxy-N-(1-(5-methyl-1,2,4-oxadiazol-3-yl)ethyl)quinazolin-4-amine] | 3160 to 31600 nM | 316 to 3160 nM | 316 to 3160 nM
COc1cc(-c2ncc(F)cn2)cc2c(NC(C)c3nnc(C)s3)ncnc12 (stereo not drawn) [Example 109, 6-(5-fluoropyrimidin-2-yl)-8-methoxy-N-(1-(5-methyl-1,3,4-thiadiazol-2-yl)ethyl)quinazolin-4-amine] | 3160 to 31600 nM | 316 to 3160 nM | 316 to 3160 nM
COc1cc(-c2ncc(C)s2)cc2c(NCc3cc(C)no3)ncnc12 [Example 111, 8-methoxy-N-[(3-methylisoxazol-5-yl)methyl]-6-(5-methylthiazol-2-yl)quinazolin-4-amine] | 316 to 3160 nM | < 316 nM | < 316 nM
COc1cc(-c2ncc(C)s2)cc2c(NCc3nc(C(F)(F)F)no3)ncnc12 [Example 112, 8-methoxy-6-(5-methylthiazol-2-yl)-N-[[3-(trifluoromethyl)-1,2,4-oxadiazol-5-yl]methyl]quinazolin-4-amine] | 316 to 3160 nM | < 316 nM | < 316 nM
COc1cc(-c2ncc(C)s2)cc2c(NCc3nc(C)no3)ncnc12 [Example 113, 8-methoxy-N-[(3-methyl-1,2,4-oxadiazol-5-yl)methyl]-6-(5-methylthiazol-2-yl)quinazolin-4-amine] | 316 to 3160 nM | < 316 nM | < 316 nM
COc1cc(-c2ncc(C)s2)cc2c(NCc3ccc(C(F)(F)F)cn3)ncnc12 [Example 116, 8-methoxy-6-(5-methylthiazol-2-yl)-N-((5-(trifluoromethyl)pyridin-2-yl)methyl)quinazolin-4-amine] | 316 to 3160 nM | < 316 nM | < 316 nM
COc1cc(-c2ncc(C)s2)cc2c(NCc3ccc(Cl)cn3)ncnc12 [Example 117, N-((5-chloropyridin-2-yl)methyl)-8-methoxy-6-(5-methylthiazol-2-yl)quinazolin-4-amine] | 316 to 3160 nM | < 316 nM | < 316 nM
COc1cc(-c2ccc(C)cn2)cc2c(NCc3noc(C)n3)ncnc12 [Example 136, 8-methoxy-N-((5-methyl-1,2,4-oxadiazol-3-yl)methyl)-6-(5-methylpyridin-2-yl)quinazolin-4-amine] | 3160 to 31600 nM | 316 to 3160 nM | 316 to 3160 nM
COc1cc(-c2ccc(C)cn2)cc2c(NCc3cc(C)no3)ncnc12 [Example 137, 8-methoxy-N-((3-methylisoxazol-5-yl)methyl)-6-(5-methylpyridin-2-yl)quinazolin-4-amine] | 3160 to 31600 nM | < 316 nM | < 316 nM
COc1cc(-c2ccc(F)cn2)cc2c(NCc3ccc(C)nc3)ncnc12 [Example 149, 6-(5-fluoropyridin-2-yl)-8-methoxy-N-((6-methylpyridin-3-yl)methyl)quinazolin-4-amine] | 3160 to 31600 nM | < 316 nM | < 316 nM
COc1cc(-c2ncc(C)cn2)cc2c(NCc3ccc(C)nc3)ncnc12 [Example 154, 8-methoxy-N-((6-methylpyridin-3-yl)methyl)-6-(5-methylpyrimidin-2-yl)quinazolin-4-amine] | 316 to 3160 nM | < 316 nM | < 316 nM

More lines, now with the values ahead:

IC50 (h P2X2/3) | IC50 (h P2X3; [1]) | IC50 (h P2X3; Table 7) | SMILES
3160 to 31600 nM | < 316 nM | < 316 nM | COc1cc(-c2ccc(C)cn2)cc2c(NCc3nc(C)no3)ncnc12 [Example 142, 8-methoxy-N-[(3-methyl-1,2,4-oxadiazol-5-yl)methyl]-6-(5-methyl-2-pyridyl)quinazolin-4-amine]
3160 to 31600 nM | < 316 nM | < 316 nM | COc1cc(-c2ccc(C)cn2)cc2c(NCc3nnc(C)o3)ncnc12 [Example 143, 8-methoxy-N-[(5-methyl-1,3,4-oxadiazol-2-yl)methyl]-6-(5-methyl-2-pyridyl)quinazolin-4-amine]
3160 to 31600 nM | < 316 nM | < 316 nM | COc1cc(-c2ncc(C)cn2)cc2c(NCc3nc(C(F)(F)F)no3)ncnc12 [Example 144, 8-methoxy-6-(5-methylpyrimidin-2-yl)-N-[[3-(trifluoromethyl)-1,2,4-oxadiazol-5-yl]methyl]quinazolin-4-amine]
316 to 3160 nM | < 316 nM | < 316 nM | COc1cc(-c2ncc(C)cn2)cc2c(NCc3cnc(C(F)(F)F)nc3)ncnc12 [Example 145, 8-methoxy-6-(5-methylpyrimidin-2-yl)-N-[[2-(trifluoromethyl)pyrimidin-5-yl]methyl]quinazolin-4-amine]
3160 to 31600 nM | < 316 nM | < 316 nM | COc1cc(-c2ccc(F)cn2)cc2c(NCc3cnc(C(F)(F)F)nc3)ncnc12 [Example 146, 6-(5-fluoropyridin-2-yl)-8-methoxy-N-((2-(trifluoromethyl)pyrimidin-5-yl)methyl)quinazolin-4-amine]
3160 to 31600 nM | < 316 nM | < 316 nM | COc1cc(-c2ccc(F)cn2)cc2c(NCc3ccc(C(F)(F)F)nc3)ncnc12 [Example 150, 6-(5-fluoropyridin-2-yl)-8-methoxy-N-((6-(trifluoromethyl)pyridin-3-yl)methyl)quinazolin-4-amineamine]
316 to 3160 nM | < 316 nM | < 316 nM | COc1cc(-c2ncc(C)cn2)cc2c(NCc3ccn(C)c(=O)c3)ncnc12 [Example 151, 4-(((8-methoxy-6-(5-methylpyrimidin-2-yl)quinazolin-4-yl)amino)methyl)-1-methylpyridin-2(1H)-one]
3160 to 31600 nM | < 316 nM | < 316 nM | COc1cc(-c2ncc(C)cn2)cc2c(NCc3cccc(=O)[nH]3)ncnc12 [Example 152, 6-(((8-methoxy-6-(5-methylpyrimidin-2-yl)quinazolin-4-yl)amino)methyl)pyridin-2(1H)-one]
3160 to 31600 nM | < 316 nM | < 316 nM | COc1cc(-c2ncc(C)cn2)cc2c(NCc3nnc(C)s3)ncnc12 [Example 153, 8-methoxy-N-((5-methyl-1,3,4-thiadiazol-2-yl)methyl)-6-(5-methylpyrimidin-2-yl)quinazolin-4-amine]
